# According to patent US20080199423A1, “Methods of Using Apo2l Receptor Agonists and Ink Cell Activators” (GENENTECH, INC., priority 2004, published 2008):
# Entries after “also recorded” stand apart in the source; their conditions may differ. The star is where a group is joined. Cbz = O=C(OCc1ccccc1)*; CH2F = FC*
# Experiments:
# 4T1 cells [1] = test: 51Cr release cytotoxicity assay, purified human NK cells on 4T1 target cells; assay type: cell-based, mouse; settings: for Lysis of 4T1 cells by NK cells treated with TLR activating agent: NK cells treated for 18 hours with agent, 4 hour incubation, E:T 1:1 to 50:1
# Description: 4T1 cells (a metastatic mammary carcinoma cell line derived from BALE/C mice, obtained from Fred Miller, Karmanos Cancer Institute) were assayed in an in vitro cytotoxicity assay to examine tumoricical effects of various Toll receptor (“TLR”) activators and NK cells. The 4T1 target cells were cultured in IDMEM medium supplemented with 10% FCS, glutamine and penicillin/streptomycin, labeled with 100 mCi ^51Cr for 1 hour at 37° C. and then washed three times with culture medium.
# To prepare purified effector NK cells for the assay, PBMCs from healthy human donors were isolated by standard density-gradient centrifugation over Ficoll-Paque Plus (Pharmacia). CD3 positive cells were first depleted using anti-CD3 microbeads (obtained from Miltenyi), and then the NK cells were purified using anti-CD56 microbeads (Miltenyi). The purity of the NK cell preparation was 95% or higher as determined by staining with mouse anti-human CD56 PE and mouse anti-human CD14 PE conjugates (BD Biosciences). The isolated cells were cultured in RPMI 1640 supplemented with heat inactivated 10% FCS, penicillin, streptomycin, 10 mM sodium pyruvate, 2 mM L-glutamine and 10 mM HEPES.
# 10^4 of the labeled 4T1 cells were added to varying numbers of purified NK cells (either untreated control NK cells or NK cells treated with specific agent) at ratios of 1:1, 3:1, 6:1, 12:1, 25:1, and 50:1, respectively. NK cells were treated for 18 hours with one of the following TLR activating agents: sBLP (1 μg/ml, Bachem); poly(I:C) (50 μg/ml, Pharmacia); E. coli 055:B5 LPS (phenol extracted, 1 μg/ml, Sigma); Flagellin (1 μg/ml, A. Gewirtz, Emory Univerity); R-848 (5 μg/ml, Invivogen); CpG oligonucleotides (2006 and 2216, 5 μM, Invivogen). The cytotoxicity assays were performed in round bottom 96 well plates, and the samples were incubated in duplicate wells for 4 hours at 37° C., 5% CO2. RPMI 1640 supplemented with heat inactivated 10% FCS, penicillin, streptomycin, 10 mM sodium pyruvate, 2 mM L-glutamine and 10 mM HEPES was used during incubation.
# After the 4 hour incubation, supernatants were aspirated from the wells and examined for ^51Cr release using a Gamma counter. The percent specific lysis was calculated as 100× (experimental cpm-spontaneous cpm)/(total cpm-spontaneous cpm). The data are representative of at least three experiments and <5% SD was observed.
# A cytotoxicity assay was performed as described in Example 1, except for the following modifications. Purified NK cells were treated with poly(I:C) or R-848 overnight and incubated with 4T1 cells. The role of TNF-alpha, FasL, and Apo2L/TRAIL was evaluated by preincubation of the NK cells with neutralizing antibodies to the respective ligands. The following neutralizing antibodies were added at final concentration of 2 μg/ml: anti-Fas-L (mIgG2b, R&D Systems), anti-TNF-alpha (mIgG1, Genentech), and anti-Apo2L/TRAIL (5C2, mIgG2a, ATCC HB-12258 and 1D1, mIgG2b; ATCC HB-12257). Isotype control antibodies were obtained from BD Biosciences.
# (§1) For the cytotoxicity assays, target cells were labeled with 100 mCi ^51Cr for 1 hour at 37° C. and then washed 3 times before use. 10^4 target cells were added to varying numbers of effector cells at the indicated ratios and incubated in duplicate wells for 4 hours at 37° C., 5% CO2, and supernatants were used to determine ^51Cr released using a Gamma counter. The cytotoxicity assays were performed in round bottom 96 well plates and the percent specific lysis was calculated as 100× (experimental cpm-spontaneous cpm)/(total cpm-spontaneous cpm). The role of Apo2L/TRAIL expressed by NK cells in the lysis of target cells was evaluated using anti-Apo2L/TRAIL mAbs (5C2 and 1D1, Genentech, Inc.). Isotype control antibodies were obtained from BD Biosciences.
# [2] = tested on: Apo2L/TRAIL mRNA in NK cells; test: RT-QPCR of Apo2L/TRAIL message in treated NK cells; assay type: cell-based, human
# Description: In another experiment, the purified NK cells were treated for 18 hours in RPMI 1640 supplemented with heat inactivated 10% FCS, penicillin, streptomycin, 10 mM sodium pyruvate, 2 mM L-glutamine and 10 mM HEPES with poly(I:C) (50 μg/ml), R-848 (5 μg/ml) or hIFN-alpha (1000 U/ml, Sigma) in the presence or absence of 10 μg/ml cycloheximide and Apo2L/TRAIL was measured in the extracted RNA. RT-PCR was performed and the amount of cDNA was quantitated by RT-QPCR analysis, normalized to RPL19, and fold induction over control is shown in FIG. 2A. Primers were designed as per instructions (Primer Express) and sequences are: hRPL19-probe: […] (SEQ ID NO:7); hRPL19-For: […] (SEQ ID NO:8); hRPL19-Rev: […] (SEQ ID NO:9); hApo2L-probe: […] (SEQ ID NO:10); hApo2L-For: […] (SEQ ID NO:11); hApo2L-Rev: […] (SEQ ID NO:12). cDNA was analyzed for expression of RPL19 and Apo2L/TRAIL by RT-QPCR (Applied Biosystems) as described in Zarember et al., J. Immunol., 168(2):554-61 (2002). Fold increase values are expressed as arbitrary units, relative to the calibrator gene RPL19.
# [3] = tested on: cell surface Apo2L/TRAIL on NK cells; test: Flow cytometry of cell surface Apo2L/TRAIL on purified NK cells; assay type: cell-based, human; settings: 5C2-Alexa 488 staining
# Description: Cell surface Apo2L/TRAIL on purified NK cells treated with poly(I:C), R-848 or hIL-2 (30 ng/ml, BD Biosciences) was also analyzed by cytometry. Isotype control (IgG2a, Sigma) and anti-Apo2L/TRAIL antibody (5C2) were labeled with Alexa 488 (Molecular Probes). 5×10^5 cells were incubated with 2 μg of human IgG to block FcRs and 1 μg of the directly labeled mAbs at 4° C. for 45 minutes, followed by 2 washes. Stained cells were analyzed using a FACScan cytometer (Becton Dickenson) and Cellquest software.
# B16BL10 melanoma cells = test: 51Cr release cytotoxicity assay on B16 melanoma target cells; assay type: cell-based, mouse
# Description: (§2) Purified NK cells were treated with poly(I:C) or R-848 and incubated with B16BL10 melanoma cells (ATCC) at the indicated ratios. Purified NK cells stimulated with R-848 were incubated with HCT116 target cells (ATCC) at the indicated ratios. The role of Apo2L/TRAIL in lysis assays in panels B and C was determined by preincubation with neutralizing (5C2) and non-neutralizing (1D1) anti-Apo2L/TRAIL mAbs. The data has been confirmed with NK cells from at least 3 donors and less that 5% SD was observed.
# as §1
# HCT116 cells = test: 51Cr release cytotoxicity assay on HCT116 target cells; assay type: cell-based
# Description: as §2, §1
# C57MG = test: 51Cr release cytotoxicity assay on C57MG cells; assay type: cell-based, mouse
# SKMES-1 cells = test: 51Cr release by SKMES-1 cells incubated with soluble Apo2L/TRAIL; assay type: cell-based; settings: range of concentrations, 4 hours
# Description: The role of Apo2L/TRAIL was evaluated by preincubation of NK cells with either a neutralizing (5C2) or non-neutralizing (1D1) mAb. The % lysis was plotted, and the results are representative of 3 experiments (less than 5% SD was observed). […] The supernatants were then assessed for Cr release. Similar cytolysis results were obtained in at least 3 experiments.
# as §1
# [4] = tested on: caspase-3 and PARP cleavage in 4T1 cells; test: Immunoblot for caspase-3 and PARP cleavage in 4T1 cells; assay type: cell-based, mouse
# Description: (§3) The cytolytic activity of resting and activated NK cells was evaluated against 4T1 target cells. The activated NK cells were treated with inhibitors of Perforin maturation (concanamycin A), GraB (Z-AAD-FMK), PI3K (wortmannin), MEK1 kinase (PD98059), S6 kinase (rapamycin) and JNK (SP) to assess the role of cytotoxic granules. The E/T ratio was 25 to 1, and results shown are from one representative donor (out of three donors). […] 4T1 target cells were treated with Apo2L/TRAIL protein (100 ng/ml) or with activated NK cells (“Act NK”) for 30 minutes, 1 hour or 4 hours. The E/T ratio was 10:1. Extracts of the 4T1 cells were analysed by SDS-PAGE and immunoblot analysis for pro-caspase-3, cleaved caspase-3 and cleaved PARP.
# 4T1 cells were treated with Apo2L/TRAIL, resting NK cells (“NK”) or activated NK cells (“Act NK”) separately or in combination. The lysates were analyzed for cleavage of PARP, an indicator of caspase-3 activation. NK cells from multiple donors were utilized and results from one representative donor are shown. […]
# Total cell extracts were prepared from 4T1 cells using lysis buffer (0.1 M Tris pH 8.0, 500 mM NaCl, 2 mM EDTA, […], 10% glycerol, supplemented with Complete Protease Inhibitor Cocktail, Roche), and the lysates were clarified by centrifugation at 16,000 rpm for 10 minutes at 4° C. […] Immune complexes were detected using enhanced chemiluminesence (Amersham).
# 4T1 cells [5] = test: Clonogenic potential of 4T1 cells; assay type: cell-based, mouse
# Description: Since both cell surface Apo2L/TRAIL and perforin granules are essential for lysis of 4T1 cells, assays were conducted to examine if resting NK cells could be “armed” by the addition of soluble Apo-2L/TRAIL protein. There is precedence for membrane bound and soluble forms of TNF family members to display differential behavior upon application to the target cell. With the aim of corroborating the ^51Cr release assays, the clonogenic potential of 4T1 cells was evaluated by treatment with soluble Apo2L/TRAIL and resting NK cells.
# 4T1 cells [6] = test: Lysis of 4T1 cells by activated NK cells treated with inhibitors; assay type: cell-based, mouse; settings: E/T ratio 25 to 1
# Description: as §3
# For the cytotoxicity assays, target cells were labeled with 100 mCi ^51Cr for 1 hour at 37° C. and then washed 3 times before use. […] The cytotoxicity assays were performed in round bottom 96 well plates and the percent specific lysis was calculated as 100× (experimental cpm-spontaneous cpm)/(total cpm-spontaneous cpm). The role of Apo2L/TRAIL expressed by NK cells in the lysis of target cells was evaluated using anti-Apo2L/TRAIL mAbs (5C2 and 1D1, Genentech, Inc.). […]
compound,measurement,setting,value
CCOCc1nc2c(N)nc3ccccc3c2n1CC(C)(C)O [R-848],Lysis of 4T1 cells by NK cells treated with TLR activating agent,4T1 cells [1],efficiently killed
same,Increase of Apo2L/TRAIL mRNA over control,"[2]; NK cells treated 18 hours, normalized to RPL19",25 fold
same,Cell surface expression of Apo2L/TRAIL on NK cells,[3],detectable cell surface expression
same,Killing of B16 melanoma cells by stimulated NK cells,B16BL10 melanoma cells; NK cells stimulated with agent,efficiently killed
same,Cytotoxicity of stimulated NK cells towards HCT116 cells,HCT116 cells; NK cells stimulated with agent,increased cytoxicity
Flagellin,Lysis of 4T1 cells by NK cells treated with TLR activating agent,4T1 cells [1],"neither BLP, LPS, Flagellin, nor the CpG oligonucleotides induced cytotoxic activity"
"Apo2L/TRAIL: recombinant Apo2L/TRAIL (amino acids 114-281), prepared as in Ashkenazi et al. 1999","Lysis of 4T1 cells, Apo2L/TRAIL with resting NK cells",4T1 cells [1]; increasing concentrations of Apo2L/TRAIL plus resting NK cells,dose dependent lysis
same,"Lysis of 4T1 cells, Apo2L/TRAIL added to activated NK cells",4T1 cells [1]; plus activated NK cells,Some increase
same,Lysis of 4T1 cells by Apo2L/TRAIL protein alone,"4T1 cells [1]; range of concentrations, up to 2 μg/ml, no NK cells",resistant to lysis; also recorded: certain resistance
same,"Lysis of B16BL10 cells, Apo2L/TRAIL added to activated NK cells",B16BL10 melanoma cells; plus activated NK cells,no significant increase
same,"Lysis of B16BL10 cells, Apo2L/TRAIL added to resting NK cells",B16BL10 melanoma cells; plus resting NK cells,increased the lysis observed
same,Apoptotic effect of Apo2L/TRAIL protein alone on B16 cells,"B16BL10 melanoma cells; range of concentrations, no NK cells",certain resistance
same,"Cytotoxic effect on HCT116 cells, Apo2L/TRAIL with limiting ratios of resting NK cells",HCT116 cells; 5 ng/ml Apo2L/TRAIL plus resting NK cells,enhanced cytotoxic effect
same,Lysis of HCT116 cells by Apo2L/TRAIL alone,"HCT116 cells; 5 ng/ml Apo2L/TRAIL, no NK cells",no lysis
same,"51Cr release by HCT-116 cells, Apo2L/TRAIL alone","HCT116 cells; range of concentrations, 4 hours",effectively mediated release
same,"Lysis of C57MG cells, Apo2L/TRAIL added to activated NK cells",C57MG; plus activated NK cells,no significant increase
same,"Lysis of C57MG cells, Apo2L/TRAIL added to resting NK cells",C57MG; plus resting NK cells,increased the lysis observed
same,"51Cr release by SKMES-1 cells, Apo2L/TRAIL alone",SKMES-1 cells,effectively mediated release
same,"Cleavage of pro-caspase-3 and PARP in 4T1 cells, Apo2L/TRAIL alone","[4]; 100 ng/ml, 30 minutes, 1 hour or 4 hours",did not result in cleavage
same,"PARP cleavage in 4T1 cells, resting NK cells along with soluble Apo2L/TRAIL",[4]; combined treatment,production of cleaved PARP
same,"Clones of 4T1 cells, simultaneous soluble Apo2L/TRAIL and resting NK cells","4T1 cells [5]; NK cells at ratio 25 to 1, after 5 days",dramatic reduction in clones
same,"Clonogenic capacity of 4T1 cells, soluble Apo2L/TRAIL alone",4T1 cells [5]; individual treatment,not affected in terms of clonogenic capacity
Cbz-Ala-Ala-Asp-CH2F [GraB inhibitor],Effect of inhibitor treatment of activated NK cells on lysis of 4T1 cells,4T1 cells [6],reduction in lysis
C/C=C/[C@H]1O[C@@](O)([C@@H](C)[C@H](O)[C@H](C)[C@H]2OC(=O)/C(OC)=C/C(C)=C/[C@@H](C)[C@@H](O)[C@@H](CC)[C@@H](O)[C@H](C)C/C(C)=C/C=C/[C@@H]2OC)C[C@@H](O[C@H]2C[C@@H](O)[C@H](OC(N)=O)[C@@H](C)O2)[C@@H]1C [Concanamycin A],Effect of inhibitor treatment of activated NK cells on lysis of 4T1 cells,4T1 cells [6],blocked the cytotoxic activity
C[C@@H]1C[C@@H]([C@H](O)CC2CC(=O)NC(=O)C2)C(=O)[C@@H](C)C1 [cycloheximide],Effect of protein synthesis inhibitor on induction of Apo2L/TRAIL message in stimulated NK cells,"[2]; 10 μg/ml cycloheximide, poly(I:C), R-848 or IFN-alpha stimulated",not blocked
